In PubChem BioAssay (NCI):
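Tested at 5 concentrations; 48 h exposure; 96-well plates; endpoints linearly interpolated, else capped at highest concentration. TGI marks complete inhibition of growth.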

Assays:
Assay in all cases: DTP human tumour cell line panel, 48 h
[1] = test system: 786-0 renal
[2] = test system: ACHN renal
[3] = test system: BT-549 breast
[4] = test system: CAKI-1 renal
[5] = test system: COLO 205 colon
[6] = test system: DU-145 prostate
[7] = test system: HCT-116 colon
[8] = test system: HCT-15 colon
[9] = test system: HOP-62 NSCLC
[10] = test system: K-562 leukemia
[11] = test system: KM12 colon
[12] = test system: LOX IMVI melanoma
[13] = test system: M14 melanoma
[14] = test system: MCF7 breast
[15] = test system: MDA-MB-231 breast
[16] = test system: MDA-MB-435
[17] = test system: MDA-N
[18] = test system: MOLT-4 leukemia
[19] = test system: NCI-H23 lung
[20] = test system: OVCAR-3 ovarian
[21] = test system: OVCAR-5 ovarian
[22] = test system: OVCAR-8 ovarian
[23] = test system: PC-3 prostate
[24] = test system: SF-295 CNS
[25] = test system: SK-MEL-2 melanoma
[26] = test system: SK-MEL-28 melanoma
[27] = test system: SK-OV-3 ovarian
[28] = test system: SNB-19 CNS
[29] = test system: SR leukemia
[30] = test system: SW-620 colon
[31] = test system: TK-10 renal
[32] = test system: UACC-257 melanoma
[33] = test system: UACC-62 melanoma
[34] = test system: A498 renal
[35] = test system: A549 NSCLC
[36] = test system: CCRF-CEM leukemia
[37] = test system: HCC-2998 colon
[38] = test system: HL-60(TB) leukemia
[39] = test system: HOP-92 NSCLC
[40] = test system: HT29 colon
[41] = test system: IGROV1 ovarian
[42] = test system: MALME-3M melanoma
[43] = test system: NCI-H226 lung
[44] = test system: NCI-H460 lung
[45] = test system: NCI-H522 lung
[46] = test system: NCI/ADR-RES ovarian
[47] = test system: OVCAR-4 ovarian
[48] = test system: RPMI-8226 leukemia
[49] = test system: RXF 393 renal
[50] = test system: SF-539 CNS
[51] = test system: SK-MEL-5 melanoma
[52] = test system: SN12C renal
[53] = test system: SNB-75 CNS
[54] = test system: T-47D breast
[55] = test system: U251 CNS
[56] = test system: UO-31 renal
[57] = test system: EKVX NSCLC
[58] = test system: HS 578T breast
[59] = test system: SF-268 CNS

O=c1[nH]c2ccc(CC(=S)N3CCCCC3)cc2s1
TGI [1]: > 100 µM
TGI [2]: > 100 µM
TGI [3]: > 100 µM
TGI [4]: > 100 µM
TGI [5]: > 100 µM
TGI [6]: > 100 µM
TGI [7]: > 100 µM
TGI [8]: > 100 µM
TGI [9]: > 100 µM
TGI [10]: > 100 µM
TGI [11]: > 100 µM
TGI [12]: > 100 µM
TGI [13]: > 100 µM
TGI [14]: > 100 µM
TGI [15]: > 100 µM
TGI [16]: > 100 µM
TGI [17]: > 100 µM
TGI [18]: > 100 µM
TGI [19]: > 100 µM
TGI [20]: > 100 µM
TGI [21]: > 100 µM
TGI [22]: > 100 µM
TGI [23]: > 100 µM
TGI [24]: > 100 µM
TGI [25]: > 100 µM
TGI [26]: > 100 µM
TGI [27]: > 100 µM
TGI [28]: > 100 µM
TGI [29]: > 100 µM
TGI [30]: > 100 µM
TGI [31]: > 100 µM
TGI [32]: > 100 µM
TGI [33]: > 100 µM

CC(C(N)=O)N(C)C(=O)c1cnc2ccccc2c1 (configuration not stated)
TGI [1]: > 100 µM
TGI [34]: > 100 µM
TGI [35]: > 100 µM
TGI [2]: > 100 µM
TGI [3]: > 100 µM
TGI [4]: > 100 µM
TGI [36]: > 100 µM
TGI [5]: > 100 µM
TGI [6]: > 100 µM
TGI [37]: > 100 µM
TGI [7]: > 100 µM
TGI [8]: > 100 µM
TGI [38]: > 100 µM
TGI [39]: > 100 µM
TGI [40]: > 100 µM
TGI [41]: > 100 µM
TGI [10]: > 100 µM
TGI [11]: > 100 µM
TGI [13]: > 100 µM
TGI [42]: > 100 µM
TGI [14]: > 100 µM
TGI [15]: > 100 µM
TGI [16]: > 100 µM
TGI [17]: > 100 µM
TGI [18]: > 100 µM
TGI [43]: > 100 µM
TGI [44]: > 100 µM
TGI [45]: > 100 µM
TGI [46]: > 100 µM
TGI [20]: > 100 µM
TGI [47]: > 100 µM
TGI [21]: > 100 µM
TGI [22]: > 100 µM
TGI [23]: > 100 µM
TGI [48]: > 100 µM
TGI [49]: > 100 µM
TGI [24]: > 100 µM
TGI [50]: > 100 µM
TGI [25]: > 100 µM
TGI [26]: > 100 µM
TGI [51]: > 100 µM
TGI [52]: > 100 µM
TGI [28]: > 100 µM
TGI [53]: > 100 µM
TGI [29]: > 100 µM
TGI [30]: > 100 µM
TGI [54]: > 100 µM
TGI [31]: > 100 µM
TGI [55]: > 100 µM
TGI [32]: > 100 µM
TGI [33]: > 100 µM
TGI [56]: > 100 µM

CC/C(=C\c1ccc(OC)cc1)c1ccc(OC)cc1
TGI [1]: > 100 µM
TGI [34]: > 100 µM
TGI [35]: > 100 µM
TGI [2]: > 100 µM
TGI [3]: > 100 µM
TGI [4]: > 100 µM
TGI [36]: > 100 µM
TGI [5]: > 100 µM
TGI [6]: > 100 µM
TGI [57]: > 100 µM
TGI [37]: > 100 µM
TGI [7]: > 100 µM
TGI [8]: > 100 µM
TGI [9]: > 100 µM
TGI [39]: > 100 µM
TGI [58]: > 100 µM
TGI [40]: > 100 µM
TGI [41]: > 100 µM
TGI [10]: > 100 µM
TGI [11]: > 100 µM
TGI [12]: > 100 µM
TGI [13]: > 100 µM
TGI [42]: > 100 µM
TGI [14]: > 100 µM
TGI [15]: > 100 µM
TGI [16]: > 100 µM
TGI [17]: > 100 µM
TGI [18]: > 100 µM
TGI [43]: > 100 µM
TGI [19]: > 100 µM
TGI [44]: > 100 µM
TGI [45]: > 100 µM
TGI [46]: > 100 µM
TGI [20]: > 100 µM
TGI [47]: > 100 µM
TGI [21]: > 100 µM
TGI [22]: > 100 µM
TGI [23]: > 100 µM
TGI [48]: > 100 µM
TGI [49]: > 100 µM
TGI [59]: > 100 µM
TGI [24]: > 100 µM
TGI [50]: > 100 µM
TGI [25]: > 100 µM
TGI [51]: 80.7 µM
TGI [27]: > 100 µM
TGI [52]: > 100 µM
TGI [28]: > 100 µM
TGI [53]: > 100 µM
TGI [30]: > 100 µM
TGI [31]: > 100 µM
TGI [55]: > 100 µM
TGI [32]: > 100 µM
TGI [33]: > 100 µM
TGI [56]: > 100 µM

N#Cc1nc(/C=C/c2cccnc2)oc1N
TGI [1]: > 100 µM
TGI [34]: > 100 µM
TGI [35]: > 100 µM
TGI [2]: > 100 µM
TGI [4]: > 100 µM
TGI [36]: > 100 µM
TGI [5]: > 100 µM
TGI [6]: > 100 µM
TGI [57]: > 100 µM
TGI [37]: > 100 µM
TGI [7]: > 100 µM
TGI [8]: > 100 µM
TGI [38]: > 100 µM
TGI [9]: > 100 µM
TGI [39]: > 100 µM
TGI [58]: > 100 µM
TGI [40]: > 100 µM
TGI [41]: > 100 µM
TGI [10]: > 100 µM
TGI [11]: > 100 µM
TGI [12]: > 100 µM
TGI [13]: > 100 µM
TGI [42]: > 100 µM
TGI [14]: > 100 µM
TGI [15]: > 100 µM
TGI [16]: > 100 µM
TGI [17]: > 100 µM
TGI [18]: > 100 µM
TGI [43]: > 100 µM
TGI [19]: > 100 µM
TGI [44]: > 100 µM
TGI [45]: > 100 µM
TGI [46]: > 100 µM
TGI [20]: > 100 µM
TGI [47]: > 100 µM
TGI [21]: > 100 µM
TGI [23]: > 100 µM
TGI [48]: > 100 µM
TGI [49]: > 100 µM
TGI [59]: > 100 µM
TGI [24]: > 100 µM
TGI [50]: > 100 µM
TGI [25]: > 100 µM
TGI [26]: > 100 µM
TGI [51]: > 100 µM
TGI [27]: > 100 µM
TGI [52]: > 100 µM
TGI [28]: > 100 µM
TGI [53]: > 100 µM
TGI [29]: > 100 µM
TGI [30]: > 100 µM
TGI [54]: > 100 µM
TGI [31]: > 100 µM
TGI [55]: > 100 µM
TGI [32]: > 100 µM
TGI [33]: > 100 µM
TGI [56]: > 100 µM

CC(=O)OCC1OC(n2c(-c3ccccc3)c(N=Nc3ccc(C)cc3)c(C)c(C#N)c2=S)C(OC(C)=O)C(OC(C)=O)C1OC(C)=O (configuration not stated)
TGI [1]: 12.5 µM
TGI [34]: 18.4 µM
TGI [35]: 47 µM
TGI [2]: > 100 µM
TGI [3]: 19 µM
TGI [4]: 64.5 µM
TGI [36]: > 100 µM
TGI [5]: > 100 µM
TGI [6]: > 100 µM
TGI [37]: > 100 µM
TGI [7]: 15.4 µM
TGI [8]: 86.6 µM
TGI [38]: > 100 µM
TGI [9]: 50.1 µM
TGI [39]: 0.856 µM
TGI [40]: > 100 µM
TGI [10]: > 100 µM
TGI [11]: > 100 µM
TGI [12]: 64.1 µM
TGI [13]: 16.8 µM
TGI [14]: > 100 µM
TGI [15]: > 100 µM
TGI [16]: 36.6 µM
TGI [17]: 74.9 µM
TGI [18]: 55.2 µM
TGI [19]: 42.1 µM
TGI [44]: > 100 µM
TGI [46]: 39.9 µM
TGI [20]: 64.7 µM
TGI [47]: 25.1 µM
TGI [21]: 51.6 µM
TGI [48]: > 100 µM
TGI [49]: 50.7 µM
TGI [59]: 76.6 µM
TGI [24]: 97.2 µM
TGI [25]: 40.9 µM
TGI [26]: 94.4 µM
TGI [52]: 28.9 µM
TGI [28]: 54.5 µM
TGI [29]: > 100 µM
TGI [30]: 11.4 µM
TGI [54]: > 100 µM
TGI [31]: 47.6 µM
TGI [55]: 33.4 µM
TGI [32]: > 100 µM
